The results in this text go back to patent US20260258172A1, “CATIONIC POLYMERS WITH SELECTIVE ANTIFUNGAL PROPERTIES” (Uniwersytet Jagiellonski, priority 2022, published 2026).

Bounds are passed on as bounds.

Holding throughout (assay type): cell-based
The test system of data set [1] is 3T3-L1 murine embryonic fibroblast line. In words: Neutral red uptake toxicity test, 3T3-L1 fibroblasts. Conditions: medium with serum; for concentration at which the number of viable cells decreased to less than 50%: 24 h exposure. As for the experimental part:
Preliminary tests were conducted in the 3T3-L1 murine embryonic fibroblast line (ATCC, CL-173™), an immortalized line (highly tolerant cells). DMEM was used as the medium. 24 h after seeding and successful adhesion, polymers dissolved in the medium were added to the cells (the medium was first replaced with a serum-free medium in serum-free experiments), and viable cells were quantified after another 24 h using the neutral red uptake assay.
The toxicity of ciclopirox and terbinafine, two commercially used antifungal drugs, was evaluated in similar conditions (the same cell line, medium composition and exposure time).

In the next data set the test system is HaCaT cell line. Briefly: Neutral red uptake toxicity test, HaCaT keratinocytes. The following applies: human, 24 h, 5 μg/mL. The protocol:
The testing was performed in the HaCaT cell line, a nontumorigenic, immortalized human keratinocyte line. The DMEM medium was used in the culture, including a modification with 10% fetal bovine serum added. 24 h after seeding and successful adhesion, the polymer dissolved in the medium was added to the cells (the medium was first replaced with a serum-free medium in serum-free experiments), and viable cells were quantified after another 24 h using the neutral red uptake assay.
The toxicity of terbinafine and ciclopirox, two commercially used antifungal drugs, was evaluated in similar conditions (the same cell line, medium composition and exposure time). As for ciclopirox, the serum-free medium was not used because the drug strongly interacts with serum and testing in a serum-free medium would have been unreliable. The results are shown in graphs in FIG. 8 and FIG. 9.

Data set [2] relates to Aspergillus fumigatus DSM 819. In words: Antifungal microdilution MIC test. The following applies: comparative test; for MIC: Aspergillus fumigatus, DSM819. As for the experimental part:
(§1) In vitro tests of the antifungal activity of the polymers were performed with respect to selected fungal species obtained from international culture collections and the microorganism collection in the Department of Infection Control and Mycology, Chair of Microbiology, Jagiellonian University Medical College. The test was performed using the microdilution method in a liquid medium on flat-bottomed, 96-well polypropylene titration plates. The applied methodology was based on antifungal susceptibility testing procedures developed by the European Committee on Antimicrobial Susceptibility Testing (EUCAST) and on the Hancock Lab procedure for antimicrobial cationic peptides.
(§2) The test compounds were dissolved in sterile distilled water and starting concentrations of 5 g/L were prepared, from which a series of two-fold dilutions in water were obtained. Respective polymer dilutions were transferred in a volume of 20 μL on titration plates (wells 1-10). 20 μL of sterile distilled water was transferred to each of wells 11 and 12. Wells 1-11 were inoculated with fungi in a volume of 180 μL of fungal cell suspensions in a liquid medium, and 180 μL of the sterile medium was transferred to well 12. Fungal suspensions were prepared from fresh cultures on agar media by collecting spores using a sterile swab into sterile distilled water or sterile distilled water with Tween-20 added. Suspensions of certain strains were filtered to remove any hyphal elements (filters with a pore diameter of 20 μm and 10 μm were used). The suspensions were brought to a density of 0.5 on the McFarland scale, and subsequently diluted to 1:20 in a liquid RPMI-1640 medium with L-glutamine and without sodium bicarbonate, supplemented with glucose (2%) and buffered morpholinopropanesulfonic acid (MOPS) (0.165 mol/L).
(§3) Final polymer concentrations on plates after adding fungal suspensions in the liquid medium were 0.49-250 mg/L or 0.98-500 mg/L.
Incubation was performed at room temperature, 27° C., 37° C., depending on the fungal species, until fungal growth was obtained in growth control (well 11). After the incubation period, fungal growth was evaluated visually and the lowest polymer concentrations that caused complete fungal growth inhibition (MIC (minimal inhibitory concentration) values) were determined.
A test was performed on selected fungal strains to compare MIC values of the PMAPTAC133 polymer with the MIC values of two known antifungal drugs (terbinafine and ciclopirox), used in the treatment of fungal infections of glabrous skin, hairy skin and nails.
The procedure described in the section above (Example 8) was used in the testing.
The drugs were dissolved in dimethyl sulfoxide (DMSO) and starting concentrations of 4 g/L were prepared, from which series of two-fold dilutions in DMSO were obtained. Respective […] concentrations were diluted to 1:100 in sterile water and subsequently transferred to wells 1-10 on a titration plate in a volume of 20 μL. Wells 11 and 12 were filled up with 20 μL DMSO diluted to 1:10 in water. Wells 1-11 were inoculated with fungi in a volume of 180 μL of fungal cell suspensions in a liquid medium, and […] of the sterile medium was transferred to well 12. Final drug concentrations on plates after adding fungal suspensions in the liquid medium were 0.008-4 mg/L.

The test system of data set [3] is Candida glabrata ATCC 15545. In words: Antifungal microdilution MIC test. The following applies: Nakaseomyces glabratus, ATCC15545, comparative test. The protocol: as §1, §2, §3
(§4) Incubation was performed at room temperature, 27° C., 37° C., depending on the fungal species, until fungal growth was obtained in growth control (well 11). After the incubation period, fungal growth was evaluated visually and the lowest polymer concentrations that caused complete fungal growth inhibition (MIC (minimal inhibitory concentration) values) were determined. […]
For orientation: Broth dilution looks for growth in wells or tubes with falling amounts of substance.

Another data set relates to Candida krusei ATCC 6258. Briefly: Antifungal microdilution MIC test. The following applies: Pichia kudriavzevii, ATCC6258, comparative test. As for the experimental part: as §1, §2, §3, §4
Another data set concerns Fusarium oxysporum 109. Briefly: Antifungal microdilution MIC test. Conditions: comparative test. As for the experimental part:
as §1, §2, §3, §4

The subject of data set [4] is Fusarium oxysporum DSM 841. Briefly: Antifungal microdilution MIC test. Conditions: DSM841, comparative test. The protocol: as §1, §2, §3, §4
Another data set concerns Fusarium solani DSM 1164. In words: Antifungal microdilution MIC test. The following applies: DSM1164, comparative test. As for the experimental part: as §1, §2, §3, §4

Broadly, the MIC is the lowest concentration that inhibits growth of the organism. In the case of `Cc1cc(C2CCCCC2)n(O)c(=O)c1` [Ciclopirox, ciclopirox], in data set [1], the “concentration at which the number of viable cells decreased to less than 50%” value is ≥ 5000 ng/mL. Also, the “reduction of viable keratinocyte cells compared to the control” value in the data set with HaCaT cell line came out at 30%. Also, the MIC (in data set [2] (incubation time 24 h); in data set [2] (incubation time 48 h); in data set [3] (incubation time 24 h); in data set [3] (incubation time 48 h); in the data set with Candida krusei ATCC 6258 (incubation time 24 h); against Candida krusei ATCC 6258 (incubation time 48 h)) was > 4 µg/mL in each case. Moreover, the MIC (against Fusarium oxysporum 109 (incubation time 24 h); with Fusarium oxysporum 109 (incubation time 48 h); in data set [4] (incubation time 24 h); in data set [4] (incubation time 48 h); in the data set on Fusarium solani DSM 1164 (incubation time 24 h); in the data set on Fusarium solani DSM 1164 (incubation time 48 h)) was > 4 µg/mL throughout.
On to `CN(C/C=C/C#CC(C)(C)C)Cc1cccc2ccccc12` [Terbinafine, terbinafine], for which, in data set [1], the “concentration at which the number of viable cells decreased to less than 50%” value is 25000 ng/mL. The viable cells in data set [1] (concentrations of 50, 75 and 100 μg/mL, 24 h) is listed as ≤ 10%. For the same compound, the minimum inhibitory concentration (MIC) (in data set [2] (incubation time 24 h); in data set [2] (incubation time 48 h); in data set [3] (incubation time 24 h); in data set [3] (incubation time 48 h); in the data set on Candida krusei ATCC 6258 (incubation time 24 h); against Candida krusei ATCC 6258 (incubation time 48 h)) was > 4 µg/mL each time. The minimum inhibitory concentration (MIC) (against Fusarium oxysporum 109 (incubation time 24 h); against Fusarium oxysporum 109 (incubation time 48 h); in data set [4] (incubation time 24 h); in data set [4] (incubation time 48 h); in the data set with Fusarium solani DSM 1164 (incubation time 24 h); in the data set with Fusarium solani DSM 1164 (incubation time 48 h)) was > 4 µg/mL each time. For the same compound, the “concentration with growth suppression” value in data set [2] (incubation time 24 h) is given as 2 mg/L.
